{"source": "patent US4738979A", "about": "“α2 -blocking derivatives of imidazole” (G. D. Searle & Co., priority 1985, dated 1988)", "test_system": "5-methoxy-N,N-dimethyltryptamine-induced head twitching (serotoninergic syndrome)", "assay": "head twitches induced by 5-methoxy-N,N-dimethyltryptamine in mice", "assay_type": "in vivo", "source_text": "The fourth in vivo study evaluated activity of the compounds of the invention on serotonin agonist-induced head twitching (serotoninergic syndrome). The compound 5-methoxy-N,N-dimethyl tryptamine is a serotonin agonist which induces head twitching in mice. The activity of this tryptamine compound is increased by antidepressant drugs. This study evaluated the ability of the compounds of the present invention to influence the effect of the tryptamine-induced head twitching (E. Friedman, et al., Eur. J. Pharmacol., 89, 69-76, 1983).\nThe compounds to be tested were administered to mice at the dose of 3 mg/kg p.o. either acutely or chronically twice a day continually for 2 weeks. The increased head twitching caused by the tryptamine compound (2 mg/kg i.p.) was observed 1, 24 and 72 hours after the last administration of the test compound."}
{"compound": "c1ccc(C(Cc2c[nH]cn2)c2ccccc2)cc1", "note": "[Compound 1, 4(5)-(2,2-diphenylethyl)-imidazole]", "values": [{"measurement": "Head Twitches/5 Minutes, percent compared to the vehicle treated group", "setting": "acute, 3 mg/kg p.o., 1 h after last treatment, tryptamine compound 2 mg/kg i.p.", "result": 171, "unit": "%"}, {"measurement": "Head Twitches/5 Minutes, percent compared to the vehicle treated group", "setting": "chronic, 3 mg/kg p.o. twice a day 2 weeks, 1 h after last treatment", "result": 278, "unit": "%"}, {"measurement": "Head Twitches/5 Minutes, percent compared to the vehicle treated group", "setting": "chronic, 3 mg/kg p.o. twice a day 2 weeks, 24 h after last treatment", "result": 210, "unit": "%"}, {"measurement": "Head Twitches/5 Minutes, percent compared to the vehicle treated group", "setting": "chronic, 3 mg/kg p.o. twice a day 2 weeks, 72 h after last treatment", "result": 211, "unit": "%"}]}
